Experimental findings from US10450297B2, “Sulfonyl amide derivatives for the treatment of abnormal cell growth” (Pfizer, Inc., priority 2007, dated 2019) are described below.

Broadly, the IC50 is the concentration needed to halve the response being measured. Low readings indicate greater potency, high ones weaker potency.

Molecules are shown by their SMILES. Where a name gives a salt, the structure may show the parent alone.

This assay deals with FAK kinase (catalytic construct FAK(410-689)) (Homo sapiens (Human), UniProt Q05397). The assay can be described thus: FAKcd kinase ELISA (inhibition of poly-glu-tyr phosphorylation by FAK(410-689)). Type of assay: biochemical. As to conditions: 50 μM final ATP. For orientation: An ELISA detects its analyte on a solid surface through an enzyme-linked reagent.
FAK kinase (catalytic construct FAK(410-689)), sequence (Q05397 410-689): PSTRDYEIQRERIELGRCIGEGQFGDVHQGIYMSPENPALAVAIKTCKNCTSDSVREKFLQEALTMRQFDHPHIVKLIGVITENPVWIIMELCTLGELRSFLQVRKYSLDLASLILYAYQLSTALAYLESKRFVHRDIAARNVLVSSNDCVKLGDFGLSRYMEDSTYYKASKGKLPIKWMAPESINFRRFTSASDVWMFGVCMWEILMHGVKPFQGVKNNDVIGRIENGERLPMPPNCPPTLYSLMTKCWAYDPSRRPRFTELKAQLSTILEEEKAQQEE
Consider `CN(c1ncccc1CNc1nc(Nc2cccc(C(=O)N3CC[C@H](O)C3)c2)ncc1C(F)(F)F)S(C)(=O)=O` [Compound 157, N-{3-[({2-[(3-{[(3S)-3-hydroxypyrrolidin-1-yl]carbonyl}phenyl)amino]-5-(trifluoromethyl)pyrimidin-4-yl}amino)methyl]pyridin-2-yl}-N-methylmethane-sulfonamide], for which it took 4.24 nM to reach half-maximal inhibition (IC50).

Consider `CN(c1ncccc1CNc1nc(Nc2ccc(C(=O)N3CC[C@H](F)C3)cc2)ncc1C(F)(F)F)S(C)(=O)=O` [Compound 236, N-{3-[({2-[(4-{[(3S)-3-fluoropyrrolidin-1-yl]carbonyl}phenyl)amino]-5-(trifluoromethyl)pyrimidin-4-yl}amino)methyl]pyridin-2-yl}-N-methylmethane-sulfonamide], for which the IC50 was 1.41 nM.

In turn, `Cc1cc(N(C)S(C)(=O)=O)c(CNc2nc(Nc3ccccc3)ncc2C(F)(F)F)cn1` [Compound 80, N-[5-({[2-anilino-5-(trifluoromethyl)pyrimidin-4-yl]amino}methyl)-2-methylpyridin-4-yl]-N-methylmethanesulfonamide] displayed an IC50 of 0.59 nM.

Take `CN(c1nccnc1CNc1nc(Nc2cccc(C(N)=O)c2)ncc1C(F)(F)F)S(C)(=O)=O` [Compound 297, 3-({4-[({3-[melhyl(methylsulfonyl)amino]pyrazin-2-yl}methyl)amino]-5-(trifluoromethyl)pyrimidin-2-yl}amino)benzamide]: half-maximal inhibition (IC50) was put at 2.26 nM.

`CN(c1ncccc1CNc1nc(Oc2ccc(C(N)=O)cc2)ncc1C(F)(F)F)S(C)(=O)=O` [Compound 350, 4-({4-[({2-[methyl(methylsulfonyl)amino]pyridin-3-yl}methyl)amino]-5-(trifluoromethyl)pyrimidin-2-yl}oxy)benzamide] gave an IC50 of 63.7 nM.

As to `CN(c1nccnc1CNc1nc(Nc2ccc(C#N)c(O)c2)ncc1C(F)(F)F)S(C)(=O)=O` [Compound 391, N-{3-[({2-[(4-cyano-3-hydroxyphenyl)amino]-5-(trifluoromethyl)pyrlmldin-4-yl}amino)methyl]pyrazin-2-yl}-N-methylmethane-sulfonamide], the IC50 turned out to be 1.24 nM.

The compound `CC1CCCN1C(=O)c1cccc(Nc2ncc(C(F)(F)F)c(NCc3cccnc3N(C)S(C)(=O)=O)n2)c1` (stereo not shown) [Compound 155, N-methyl-N-[3-({[2-({3-[(2-methylpyrrolidin-1-yl)carbonyl]phenyl}amino)-5-(trifluoromethyl)pyrimidin-4-yl]amino}methyl)pyridin-2-yl]methanesulfonamide] had an IC50 of 9.75 nM.

For `CN(c1ncccc1CNc1nc(Nc2ccc(CNS(=O)(=O)C(F)(F)F)cc2)ncc1C(F)(F)F)S(C)(=O)=O` [Compound 302, 1,1,1-trifluoro-N-[4-({4-[({2-[methyl(methylsulfonyl)amino]pyridin-3-yl}methyl)amino]-5-(trifluoromethyl)pyrimidin-2-yl}amino)benzyl]methanesulfonamide], the IC50 was 1 nM.

Compound `CN(c1ncccc1CNc1nc(Nc2ccc(S(=O)(=O)Nc3ccccn3)cc2)ncc1C(F)(F)F)S(C)(=O)=O` [Compound 61, 4-({4-[({2-[methyl(methylsulfonyl)amino]pyridin-3-yl}methyl)amino]-5-(trifluoromethyl)pyrimidin-2-yl}amino)-N-pyridin-2-ylbenzenesulfonamide] gave an IC50 of 1.02 nM.

The compound `CN(c1ncccc1CNc1nc(Nc2cccc(C(=O)NC3CCOCC3)c2)ncc1C(F)(F)F)S(C)(=O)=O` [Compound 121, 3-({4-[({2-[methyl(methylsulfonyl)amino]pyridin-3-yl}methyl)amino]-5-(trifluoromethyl)pyrimidin-2-yl}amino)-N-(tetrahydro-2H-pyran-4-yl)benzamide] displayed an IC50 of 0.94 nM.

`CN(c1ncccc1CNc1nc(Nc2cccc(C(=O)N3CCC(C)(O)C3)c2)ncc1C(F)(F)F)S(C)(=O)=O` (stereo not shown) [Compound 135, N-[3-({(2-({3-[(3-hydroxy-3-methyipyrrolidin-1-yl)carbonyl]phenyl}amino)-5-(trifluoromethyl)pyrimidin-4-yl]amino}methyl)pyridin-2-yl]-N-methylmethane-sulfonamide] displayed an IC50 of 3.33 nM.

For the compound `CN1CCC(NC(=O)c2cccc(Nc3ncc(C(F)(F)F)c(NCc4cccnc4N(C)S(C)(=O)=O)n3)c2)CC1` [Compound 173, 3-({4-[({2-[methyl(methylsulfonyl)amino]pyridin-3-yl}methyl)amino]-5-(trifluoromethyl)pyrimidin-2-yl}amino)-N-(1-methylpiperidin-4-yl)benzamide], the IC50 is 0.96 nM.

On to `Cc1cccc(NS(C)(=O)=O)c1CNc1nc(Nc2ccccc2)ncc1C(F)(F)F` [Compound 69, N-[2-({[2-anilino-5-(trifluoromethyl)pyrimidin-4-yl]amino}methyl)-3-methylphenyl]methane-sulfonamide], for which the IC50 was determined as 0.6 nM.

Compound `CN(c1ncccc1CNc1nc(Nc2ccc(C(N)=O)c(O)c2)ncc1C(F)(F)F)S(C)(=O)=O` [Compound 394, 2-hydroxy-4-({4-[({2-[methyl(methylsulfonyl)amino)pyridin-3-yl}methyl)amino]-5-(trifluoromethyl)pyrimidin-2-yl}amino)benzamide] yielded an IC50 below 0.595 nM.

Regarding `CN(c1ncccc1CNc1nc(Nc2ccc(C(=O)N3CC(F)C3)cc2)ncc1C(F)(F)F)S(C)(=O)=O` [Compound 272, N-[3-(([2-({4-[(3-fluoroazetidin-1-yl)carbonyl]phenyl}amino)-5-(trifluoromethyl)pyrimidin-4-yl]amino}methyl)pyridin-2-yl]-N-methylmethane-sulfonamide], the IC50 was 2.64 nM.

As to `Cc1ccnc(N(C)S(C)(=O)=O)c1CNc1nc(Nc2ccc(C(N)=O)cc2)ncc1C(F)(F)F` [Compound 83, 4-({4-[({4-methyl-2-[methyl(methylsulfonyl)amino]pyrldin-3-yl}methyl)amino]-5-(trifluoromethyl)pyrimidin-2-yl}amino)benzamide], it took 0.6 nM to reach half-maximal inhibition (IC50).

For `COc1ccc(C(N)=O)cc1Nc1ncc(C(F)(F)F)c(NCc2ccc(C)nc2N(C)S(C)(=O)=O)n1` [Compound 305, 4-methoxy-3-({4-[({6-methyl-2-[methyl(methylsulfonyl)-amino]pyridin-3-yl}methyl)amino]-5-(trifluoromethyl)pyrimidin-2-yl}amino)benzamide], the IC50 was determined as 0.646 nM.

For `CN(c1cccc(CNc2nc(Nc3ccc(C(N)=O)c(Cl)c3)ncc2C(F)(F)F)c1)S(C)(=O)=O` [Compound 357, 2-chloro-4-{[4-({3-[methyl(methylsulfonyl)amino]benzyl}amino)-5-(trifluoromethyl)pyrimidin-2-yl]amino}benzamide], half-maximal inhibition (IC50) was put at 1.47 nM.

In the case of `CN(c1ncccc1CNc1nc(NC2CCN(C(=O)CC(F)(F)F)CC2)ncc1C(F)(F)F)S(C)(=O)=O` [Compound 58, N-methyl-N-[3-({[5-(trifluoromethyl)-2-{[1-(3,3,3-trifluoropropanoyl)piperidin-4-yl]amino}pyrimidin-4-yl]amino}methyl)pyridin-2-yl]methanesulfonamide], the IC50 was found to be 165 nM.

As to `Cc1cc(N(C)S(C)(=O)=O)c(CNc2nc(Nc3ccc(C(N)=O)cc3)ncc2C(F)(F)F)cn1` [Compound 85, 4-({4-[({6-methyl-4-[methyl(methylsulfonyl)amino]pyridin-3-yl}methyl)amino]-5-(trifluoromethyl)pyrimidin-2-yl}amino)benzamide], half-maximal inhibition (IC50) required 0.84 nM.

Take `CN(c1ncccc1CNc1nc(Nc2ccc(C(N)=O)c(F)c2)ncc1C(F)(F)F)S(C)(=O)=O` [Example 13, 2-fluoro-4-({4-[({2-[methyl(methylsulfonyl)amino]pyridin-3-yl}methyl)amino]-5-(trifluoromethyl)pyrimidin-2-yl}amino)benzamide formic acid salt]: the IC50 is below 0.595 nM.

`C[C@@H]1COCCN1C(=O)c1ccc(Nc2ncc(C(F)(F)F)c(NCc3cccnc3N(C)S(C)(=O)=O)n2)cc1` [Compound 278, N-methyl-N-{3-(({2-[(4-{[(3R)-3-methylmorpholin-4-yl]carbonyl}phenyl)amino]-5-(trlfluoromethyl)pyrimidin-4-yl}amino)methyl]pyridin-2-yl]methanesulfonamide] gave an IC50 of 6.64 nM.

As to `C[C@H]1COCCN1C(=O)c1cccc(Nc2ncc(C(F)(F)F)c(NCc3cccnc3N(C)S(C)(=O)=O)n2)c1` [Compound 143, N-methyl-N-{3-[({2-[(3-{[(3S)-3-methylmorpholin-4-yl]carbonyl}phenyl)amino]-5-(trifluoromethyl)pyrimidin-4-yl}amino)methyl]pyridin-2-yl}methanesulfonamide], the IC50 turned out to be 2.4 nM.

Take `Cc1cc(Nc2ncc(C(F)(F)F)c(NCc3cccnc3N(C)S(C)(=O)=O)n2)ccn1` [Compound 221, N-methyl-N-{3-[({2-[(2-methylpyridin-4-yl)amino]-5-(trifluoromethyl)pyrimidin-4-yl}amino)methyl]pyridin-2-yl}methanesulfonamide]: inhibition was half-maximal at 188 nM (IC50).

With `CN(c1ncccc1CNc1nc(Nc2ccc(-c3nnn[nH]3)cc2)ncc1C(F)(F)F)S(C)(=O)=O` [Compound 314, N-methyl-N-[3-({[2-{[4-(1H-tetrazol-5-yl)phenyl]amino}-5-(trifluoromethyl)pyrimidin-4-yl]amino}methyl)pyridin-2-yl]methanesulfonamide], the IC50 is below 0.595 nM.

The compound `CN(c1ncccc1CNc1nc(Nc2ccc(C(=O)NC[C@H]3CCCO3)cc2)ncc1C(F)(F)F)S(C)(=O)=O` [Compound 238, 4-({4-[({2-[methyl(methylsulfonyl)amino]pyridin-3-yl}methyl)amino]-5-(trifluoromethyl)pyrimidin-2-yl}amino)-N-[(2R)-tetrahydrofuran-2-ylmethyl]benzamide] displayed an IC50 of 1.25 nM.

In turn, `CN(c1ncccc1CNc1nc(Nc2ccc(CN)cc2)ncc1C(F)(F)F)S(C)(=O)=O` [Example 4, N-(3-((2-(4-(aminomethyl)phenylamino)-5-(trifluoromethyl)pyrimidin-4-ylamino)methyl)pyridin-2-yl)-N-methylmethanesulfonamide] gave an IC50 of 0.59 nM.

Regarding `Cc1cc(C(N)=O)ccc1Nc1ncc(C(F)(F)F)c(NCc2cccnc2N(C)S(C)(=O)=O)n1` [Compound 341, 3-methyl-4-({4-[({2-[methyl(methylsulfonyl)amino]pyridin-3-yl}methyl)amino]-5-(trifluoromethyl)pyrimidin-2-yl}amino)benzamide], the IC50 was below 0.595 nM.
